Assay results reported in ChEMBL document CHEMBL1157831, “Chemical epigenetics alters the secondary metabolite composition of guttate excreted by an atlantic-forest-soil-derived Penicillium citreonigrum” (2010).

What was measured:
[1] = system: Staphylococcus aureus; experiment: Antimicrobial activity against Staphylococcus aureus ATCC 700787 at 100 ug/disk after 10 hrs by disc-diffusion assay; type: functional; conditions: ATCC 700787, 10 h, read-out: IZ
[2] = system: Salmonella enterica; experiment: Antimicrobial activity against Salmonella typhimurium at 100 ug/disk after 10 hrs by disc-diffusion assay; type: functional, Salmonella enterica subsp. enterica serovar Typhimurium; conditions: read-out: IZ
[3] = system: Escherichia coli; experiment: Antimicrobial activity against Escherichia coli at 100 ug/disk after 10 hrs by disc-diffusion assay; type: functional; conditions: read-out: IZ
[4] = system: Streptococcus pyogenes; experiment: Antimicrobial activity against Streptococcus pyogenes at 100 ug/disk after 10 hrs by disc-diffusion assay; type: functional; conditions: read-out: IZ
[5] = system: Staphylococcus epidermidis; experiment: Antimicrobial activity against Staphylococcus epidermidis ATCC 12228 at 30 ug in 6 mm disk after 10 hrs by disc-diffusion assay; type: functional; conditions: ATCC 12228, 10 h, read-out: IZ
[6] = system: Candida albicans; experiment: Antifungal activity against Candida albicans ATCC 12983 at 30 ug in 6 mm disk after 10 hrs by disc-diffusion assay; type: functional; conditions: ATCC 12983, 10 h, read-out: IZ
[7] = system: Candida tropicalis; experiment: Antifungal activity against Candida tropicalis ATCC 12968 at 30 ug in 6 mm disk after 10 hrs by disc-diffusion assay; type: functional; conditions: ATCC 12968, 10 h, read-out: IZ
[8] = system: Pichia kudriavzevii; experiment: Antifungal activity against Candida krusei ATCC 27803 at 30 ug in 6 mm disk after 10 hrs by disc-diffusion assay; type: functional; conditions: ATCC 27803, 10 h, read-out: IZ
[9] = system: Candida parapsilosis; experiment: Antifungal activity against Candida parapsilosis ATCC 12969 at 30 ug in 6 mm disk after 10 hrs by disc-diffusion assay; type: functional; conditions: Lodderomyces parapsilosis, ATCC 12969, 10 h; read-out: IZ
[10] = system: Pseudomonas aeruginosa; experiment: Antimicrobial activity against Pseudomonas aeruginosa ATCC 10145 at 15 ug in 6 mm disk after 10 hrs by disc-diffusion assay; type: functional, organism-based
[11] = system: Staphylococcus epidermidis; experiment: Antimicrobial activity against Staphylococcus epidermidis ATCC 12228 at 15 ug in 6 mm disk after 10 hrs by disc-diffusion assay; type: functional, organism-based
[12] = system: Acinetobacter baumannii; experiment: Antimicrobial activity against Acinetobacter baumannii ATCC 19606 at 15 ug in 6 mm disk after 10 hrs by disc-diffusion assay; type: functional, organism-based
[13] = system: Burkholderia cepacia; experiment: Antimicrobial activity against Burkholderia cepacia ATCC 25608 at 15 ug in 6 mm disk after 10 hrs by disc-diffusion assay; type: functional, organism-based
[14] = system: Klebsiella pneumoniae; experiment: Antimicrobial activity against Klebsiella pneumoniae ATCC 33495 at 15 ug in 6 mm disk after 10 hrs by disc-diffusion assay; type: functional, organism-based
[15] = system: Staphylococcus aureus; experiment: Antimicrobial activity against Staphylococcus aureus ATCC 700787 at 15 ug in 6 mm disk after 10 hrs by disc-diffusion assay; type: functional, organism-based
[16] = system: Escherichia coli; experiment: Antimicrobial activity against Escherichia coli ATCC 11775 at 15 ug in 6 mm disk after 10 hrs by disc-diffusion assay; type: functional, organism-based
[17] = system: Enterobacter cloacae; experiment: Antimicrobial activity against Enterobacter cloacae ATCC 13047 at 15 ug in 6 mm disk after 10 hrs by disc-diffusion assay; type: functional, organism-based
[18] = system: Candida tropicalis; experiment: Antifungal activity against Candida tropicalis ATCC 12968 at 15 ug in 6 mm disk after 10 hrs by disc-diffusion assay; type: functional; conditions: ATCC 12968, 10 h, read-out: IZ
[19] = system: Candida parapsilosis; experiment: Antifungal activity against Candida parapsilosis ATCC 12969 at 15 ug in 6 mm disk after 10 hrs by disc-diffusion assay; type: functional; conditions: Lodderomyces parapsilosis, ATCC 12969, 10 h; read-out: IZ
[20] = system: Nakaseomyces glabratus; experiment: Antifungal activity against Candida glabrata NRRL Y-65 at 15 ug in 6 mm disk after 10 hrs by disc-diffusion assay; type: functional; conditions: NRRL Y-65, 10 h, read-out: IZ
[21] = system: Candida albicans; experiment: Antifungal activity against Candida albicans ATCC 12983 at 15 ug in 6 mm disk after 10 hrs by disc-diffusion assay; type: functional; conditions: ATCC 12983, 10 h, read-out: IZ
[22] = system: Pichia kudriavzevii; experiment: Antifungal activity against Candida krusei ATCC 27803 at 15 ug in 6 mm after 10 hrs by disc-diffusion assay; type: functional; conditions: ATCC 27803, 10 h, read-out: IZ

`C/C=C(/C(=O)O)N1C(=O)C=C(C)C1=O` [PENCOLIDE] showed a zone of inhibition at 100 µg/disc [1] of 13 mm, a zone of inhibition at 100 µg/disc [2] of 13 mm and a zone of inhibition at 100 µg/disc [3] of 13 mm. It also gave a zone of inhibition at 100 µg/disc [4] of 13 mm.
`CC[C@H](C)/C=C(C)/C=C/C1=CC2=C(Cl)C(=O)[C@](C)(OC(C)=O)C(=O)C2=CO1` [SCLEROTIORIN] was tested, and the zone of inhibition at 30 µg/disc [5] was 8 mm.
`CC[C@H](C)/C=C(C)/C=C/C1=CC2=C(Cl)C(=O)[C@](C)(OC(C)=O)C(=O)C2=CN1` [SCLEROTIORAMINE] gave a zone of inhibition at 30 µg/disc [6] of 8 mm, a zone of inhibition at 30 µg/disc [7] of 8 mm and a zone of inhibition at 30 µg/disc [8] of 8 mm. The zone of inhibition at 30 µg/disc [5] was 8 mm and the zone of inhibition at 30 µg/disc [9] was 7 mm.
Compound GENTAMICIN has an inhibition zone (IZ) [10] of 8 mm, an inhibition zone (IZ) [11] of 8 mm and an inhibition zone (IZ) [12] of 8 mm. It also gave an inhibition zone (IZ) [13] of 8 mm, an inhibition zone (IZ) [14] of 8 mm and an inhibition zone (IZ) [15] of 8 mm. For the same compound, the inhibition zone (IZ) [16] was 8 mm and the inhibition zone (IZ) [17] was 8 mm.
Work on `CC(=O)N1CCN(c2ccc(OCC3COC(Cn4ccnc4)(c4ccc(Cl)cc4Cl)O3)cc2)CC1` (stereo not drawn) [KETOCONAZOLE] yielded a zone of inhibition at 15 µg/disc [18] of 15 mm, a zone of inhibition at 15 µg/disc [19] of 15 mm and a zone of inhibition at 15 µg/disc [20] of 15 mm. It also gave a zone of inhibition at 15 µg/disc [21] of 15 mm and a zone of inhibition at 15 µg/disc [22] of 15 mm.
